Reference: ChEMBL document CHEMBL3987221, “The Australian National University Dept Of Immunology Pathogen Box Compounds Screened” (2018)
Active and inactive are the calls of the source. No rule for the calls is given here.

Assays:
[1] = molecular target: T1, Ferrochelatase, mitochondrial (Homo sapiens) (UniProt P22830); settings: at 10 µM
T1 sequence (whole entry): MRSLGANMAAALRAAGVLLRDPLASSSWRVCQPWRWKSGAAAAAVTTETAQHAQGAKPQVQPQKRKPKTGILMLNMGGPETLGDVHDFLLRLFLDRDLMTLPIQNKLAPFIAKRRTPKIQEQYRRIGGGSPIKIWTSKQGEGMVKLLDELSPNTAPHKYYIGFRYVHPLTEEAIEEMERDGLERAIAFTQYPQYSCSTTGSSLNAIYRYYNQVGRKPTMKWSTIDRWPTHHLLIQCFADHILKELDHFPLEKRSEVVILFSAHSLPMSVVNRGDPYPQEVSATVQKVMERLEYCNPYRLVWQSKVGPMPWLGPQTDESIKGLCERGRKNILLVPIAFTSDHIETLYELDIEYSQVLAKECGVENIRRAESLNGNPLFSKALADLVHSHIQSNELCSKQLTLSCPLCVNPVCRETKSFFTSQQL
Description: Compound was evaluated for the inhibition of human FECH at 10uM

[2] = molecular target: T2, Porphobilinogen deaminase (Homo sapiens) (UniProt P08397); settings: at 100 µM
T2 sequence (whole entry): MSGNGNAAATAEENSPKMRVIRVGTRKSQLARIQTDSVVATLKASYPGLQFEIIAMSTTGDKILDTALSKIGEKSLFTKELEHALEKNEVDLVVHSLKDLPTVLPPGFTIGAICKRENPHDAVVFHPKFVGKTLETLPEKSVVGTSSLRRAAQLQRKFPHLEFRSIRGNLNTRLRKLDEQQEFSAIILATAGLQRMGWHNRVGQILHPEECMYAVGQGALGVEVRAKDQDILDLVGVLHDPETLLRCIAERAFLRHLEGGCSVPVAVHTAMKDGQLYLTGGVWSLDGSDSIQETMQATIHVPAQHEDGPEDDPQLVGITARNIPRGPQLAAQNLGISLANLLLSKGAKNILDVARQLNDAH
Description: Compound was evaluated for the inhibition of human HMBS at 100uM

Compound	inhibition [1]	inhibition [2]
COc1ccc(-c2cncc3ccc(C(=O)NCCCn4ccnc4)nc23)cc1	inactive	inactive
COc1cccc(CC(=O)N2CCC(n3c(C)nc4ccc(F)cc43)CC2)c1	inactive	inactive
NC(CC(=O)c1ccc(Cl)cc1Cl)C(Cl)(Cl)Cl (configuration not stated)	inactive	inactive
CCC(Sc1nc2ccccc2o1)C(=O)Nc1nccs1 (configuration not stated)	inactive	inactive
CCc1ccccc1-n1c(C)cn2c3c(=O)n(C(C(=O)OC)C(C)C)c(=O)n(C)c3nc12 (configuration not stated)	inactive	inactive
CC(Oc1ccccc1)C(=O)Nc1nc(-c2ccccn2)cs1 (configuration not stated)	inactive	inactive
Nc1nccc2ccc(-c3ccc4nccn4c3)cc12	inactive	inactive
CNc1snc(C)c1C(=O)NCCOc1ccc(OC)cc1	inactive	inactive
CCN(CC)C(=O)N1CCN(C)CC1	inactive	inactive
CN1CCCN(C(c2ccccc2)c2ccc(Cl)cc2)CC1 (configuration not stated)	inactive	inactive
Cc1ccc(NC(=O)c2cc(S(=O)(=O)NC(C)(C)C)ccc2C)nc1	inactive	inactive
CNC(=O)C1Cc2ccccc2N1C(=O)Cc1ccc(F)cc1 (configuration not stated)	inactive	inactive
CN1CCN(c2nccc3[nH]c(-c4cccc(F)c4)cc23)CC1	inactive	inactive
Cc1nc(-c2cccc(NCc3ccccc3)c2)[nH]c1C	inactive	inactive
COc1ccc(C2=NCCN2)cc1-c1cn(-c2cccc(C3=NCCN3)c2)nn1	inactive	inactive
Nc1ccc(C(=O)Nc2ccc(-c3nc4ccccc4o3)cc2)cc1	inactive	inactive
CC1CC1C(=O)NC1CCN(CC2(c3ccccc3)CCCCC2)CC1 (configuration not stated)	inactive	inactive
CCOc1ccc2cc(-c3nn(CC4CCN(C)CC4)c4ncnc(N)c34)ccc2c1	inactive	inactive
CN(C(=O)c1cc2c(-c3cncnc3)cccc2[nH]1)c1ccccc1	inactive	inactive

Compound	inhibition [1]	inhibition [2]
CCc1ccc(S(=O)(=O)Nc2cc(CN3CCN(CCC(C)C)CC3)ccc2C)cc1	inactive	inactive
Nc1ncc(-c2cn[nH]c2)cc1-c1nc2cc(Cl)cnc2[nH]1	inactive	inactive
CCc1nc2ccccc2n1CC(O)COc1cc(C)ccc1Cl (configuration not stated)	inactive	inactive
c1csc(-c2cnc3sc(NCC4CCOCC4)nn23)c1	inactive	inactive
CN1CCN(S(=O)(=O)c2ccc(-c3ccc4c(Nc5ncc(Cl)cn5)ccnc4c3)cc2)CC1	inactive	inactive
CN(C)c1cc(NC(=O)Nc2ccccc2)c2ccccc2n1	inactive	inactive
Cc1ccc2nc(Cl)c(CNCc3cccs3)cc2c1	inactive	inactive
Cc1cc2nc(NC(=O)C(C)(C)C)nc(Cl)c2n1Cc1ccc(Cl)cc1	inactive	inactive
O=[N+]([O-])c1cn2c(n1)OC[C@@H](OCc1ccc(OC(F)(F)F)cc1)C2	inactive	inactive
COc1cccc(-c2nc3c(N4CCCC4)cccc3n2CC2CCCN2)n1 (configuration not stated)	inactive	inactive
COc1ccc(-c2cnc3ccc(N4CCCC4)nn23)cc1OC	inactive	inactive
CN1CCN(c2cc(-c3ccc(F)cc3)nc(-c3ccncc3)n2)CC1	inactive	inactive
Cn1ccnc1CNCCS(=O)(=O)c1cccc(Nc2ccc(-c3cccc(F)c3)cn2)c1	inactive	inactive
O=C(Nc1ccccc1-c1nc2c(C(=O)O)cccc2o1)c1ccccc1	inactive	inactive
COc1ccc(C(=N)N)cc1-c1cn(-c2ccc(C(=N)N)cc2)nn1	inactive	inactive
O=C(Nc1nnc(-c2ccc(Cl)s2)o1)c1ccc(Cl)s1	inactive	inactive
O=C1O[C@@H](CO)CN1c1cc(F)c(C2=CCN(Cc3ccccc3)CC2)c(F)c1	inactive	inactive
CC1CCCCN1C(=O)NCCc1coc(-c2ccc(F)cc2)n1 (configuration not stated)	inactive	inactive
CCN(CC)CCCCCCNc1cc(OC)cc2c(C)ccnc12	inactive	inactive

Compound	inhibition [1]	inhibition [2]
Cc1ccc2cc(C3NC(=O)c4ccccc4N3)c(Cl)nc2c1 (configuration not stated)	inactive	inactive
Cc1cc2ccccc2n1CC(=O)N1CC(C(=O)N2CCCCC2)Oc2ccccc21 (configuration not stated)	inactive	inactive
NCC(=O)N1CCn2c(nc(-c3ccccc3)c2Nc2ccc3c(c2)OCO3)C1	inactive	inactive
Cc1ccc(S(=O)(=O)N2CCN(C(=O)c3cc(-c4ccccc4)n[nH]3)CC2)cc1	inactive	inactive
CC(C(=O)N1CCCC1)N1CCN(S(=O)(=O)c2ccc(C(C)(C)C)cc2)CC1 (configuration not stated)	inactive	inactive
CCc1nn(C)c(C(=O)NCc2ccc(Oc3ccc(C)cc3)cc2)c1Cl	inactive	inactive
O=C(NCc1cc(Cl)cc(Cl)c1)c1c(C(F)(F)F)nc2ccccn12	inactive	inactive
Cc1ccccc1CN1CCC(O)(c2ccc(Cl)c(C(F)(F)F)c2)CC1	inactive	inactive
c1ccc(C[C@@H]2CN(c3nccc(Oc4ccc(-n5ccnc5)cc4)n3)CCN2)cc1	inactive	inactive
CC(C)(C)c1cnc(NC(=O)c2ccccc2O)s1	inactive	inactive
C[C@H](C(N)=O)N1CCCC[C@@H]1c1ccc(OCc2cccc(F)c2)cc1	inactive	inactive
Cc1cc(Cl)c(S(=O)(=O)N2CCCC2)cc1OCC(=O)NC1CCCCC1	inactive	inactive
O=C([C@@H](c1ccc(Cl)cc1)c1cccnc1)N1CCN(c2ccc(C(F)(F)F)cc2)CC1	inactive	inactive
CN1CCCC1CCO[C@](C)(c1ccccc1)c1ccc(Cl)cc1 (some centres not stated)	inactive	inactive
CCCn1c(CNc2ccccc2O)nc2ccccc21	inactive	inactive
COc1ccc(C2=NN(C3CCCCCC3)C(=O)C2(C)C)cc1OCc1ccccn1	inactive	inactive
COc1ccc2nc(C)cc(OCC(=O)Nc3ccccc3OC)c2c1	inactive	inactive
CC(=O)Nc1ccc(-c2noc(CC3CCCN(Cc4cccc(F)c4C)C3)n2)cc1 (configuration not stated)	inactive	inactive
